In one experiment the test system is HCT116-WT cells. In words: Inhibitory activity against cell proliferation (CellTiter Glo, 6 days), HCT116-WT. The class given is cell-based. The following applies: 144 h, HCT116-WT cells, 6 days, CellTiter Glo; read-out: HCT116-WT IC50. The procedure:
(§1) HCT116-WT (ATCC, CCL-247) and HCT116 MTAP KO (Nanjing Cobioer, CBP75002) cells were seeded into white low-transparency sterile 96-well cell culture plates at a density of 250 cells per well respectively, and the culture medium was McCoy's 5A Medium+10% FBS. The plates were placed under the condition of 37°C and 5% CO2 to be cultured overnight. The cells were treated with 4-fold serially diluted compounds of 8 concentration points starting at an initial concentration of 10000 nM, and the last two columns were used as control wells to which only DMSO was added. The drug-treated cells were further cultured for 6 days. On day 7, CellTiter Glo® reagent was added at 50 uL per well, and after reaction under shaking for 10 minutes at room temperature, the chemiluminescence signals were detected for the well plates through the chemiluminescence detection method using a BIOTEK H1 multifunctional microplate-reader. The IC50 values for inhibition of the compounds on cell viability were calculated in X1fit 5.0 software. Table 2. IC50 values for inhibition of the compounds on HCT116 MTAP KO/WT cell growth
Background: ATP-based viability assays read luminescence as a measure of living cells.

The next experiment deals with HCT116 MTAP KO cells. In words: Inhibitory activity against cell proliferation (CellTiter Glo, 6 days), HCT116 MTAP KO. The following applies: for IC50: HCT116 MTAP KO cells, 6 days, CellTiter Glo, read-out: HCT116 MTAP KO IC50; for Selectivity HCT 116-WT/ HCT116 MTAP KO: ratio of IC50 HCT116-WT / HCT116 MTAP KO. In kind it is cell-based. The protocol: as §1
A further experiment addresses PRMT5-MTA (Homo sapiens, UniProt O14744). Nature of the experiment: Enzymatic inhibitory activity against PRMT5-MTA (AlphaScreen). The following applies: read-out: IC50. The class given is biochemical. An outline of the steps: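 PRMT5/[…] (1 nM) was preincubated for 30 min at room temperature with 1 µM […] and 2.5 µM SAM, then exposed to compound (10-point, 3-fold from 1000 nM) for 15 min at 23 °C. Histone H4 substrate (5 nM) was added and reacted for 45 min at 23 °C. Symmetric dimethyl-R3 H4 was detected by AlphaScreen and IC50 calculated.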
Background: In Alpha technology, singlet oxygen from a donor bead excites a nearby acceptor bead.

SMILES strings stand for the structures. Like-named read-outs stand apart in the source and are kept apart here.

The term IC50 denotes the midpoint of a concentration-inhibition curve.

Sequence of PRMT5-MTA (O14744 whole entry): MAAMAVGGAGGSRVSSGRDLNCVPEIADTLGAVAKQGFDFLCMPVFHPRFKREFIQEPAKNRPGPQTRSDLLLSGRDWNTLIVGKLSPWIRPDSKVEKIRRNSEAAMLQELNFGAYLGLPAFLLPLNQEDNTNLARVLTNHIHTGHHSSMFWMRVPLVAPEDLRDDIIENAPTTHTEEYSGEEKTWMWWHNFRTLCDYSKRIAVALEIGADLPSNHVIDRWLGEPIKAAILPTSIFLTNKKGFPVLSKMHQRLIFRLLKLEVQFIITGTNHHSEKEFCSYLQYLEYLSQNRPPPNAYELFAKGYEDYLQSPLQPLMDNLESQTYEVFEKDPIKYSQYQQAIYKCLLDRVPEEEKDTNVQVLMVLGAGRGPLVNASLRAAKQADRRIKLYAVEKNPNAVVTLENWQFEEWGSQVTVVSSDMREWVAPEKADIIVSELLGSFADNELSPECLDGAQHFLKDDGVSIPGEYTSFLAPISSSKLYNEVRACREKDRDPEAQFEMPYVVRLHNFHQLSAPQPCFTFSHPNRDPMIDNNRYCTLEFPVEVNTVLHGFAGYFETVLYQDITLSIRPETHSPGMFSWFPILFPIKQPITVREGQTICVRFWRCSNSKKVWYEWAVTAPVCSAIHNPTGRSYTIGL
Sequence of PRMT5-MTA (Q9BQA1 whole entry partner): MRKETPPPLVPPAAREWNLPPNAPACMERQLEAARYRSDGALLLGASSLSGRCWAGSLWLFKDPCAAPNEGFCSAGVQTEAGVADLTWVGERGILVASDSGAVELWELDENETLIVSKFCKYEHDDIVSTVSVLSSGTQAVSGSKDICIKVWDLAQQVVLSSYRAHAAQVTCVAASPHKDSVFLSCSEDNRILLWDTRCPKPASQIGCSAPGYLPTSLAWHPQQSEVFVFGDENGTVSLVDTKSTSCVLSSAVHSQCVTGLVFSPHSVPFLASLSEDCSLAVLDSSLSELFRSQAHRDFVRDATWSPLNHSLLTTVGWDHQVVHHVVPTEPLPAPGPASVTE

As to `Cc1cc2cc(C(=O)N(Cc3ccc(-c4cncs4)cn3)N(C)c3ncccn3)ccc2nc1N` [Example 204, 2-amino-N',3-dimethyl-N'-(pyrimidin-2-yl)-N-((5-(thiazol-5-yl)pyridin-2-yl)methyl)quinoline-6-carbohydrazide], the IC50 was 396 nM in the experiment with HCT116-WT cells and 14 nM in the experiment on HCT116 MTAP KO cells (Homo sapiens, HCT-116, 144 h). Moreover, the “Selectivity HCT 116-WT/ HCT116 MTAP KO” value in the experiment with HCT116 MTAP KO cells is on record as 28.29.

On to `Cc1cc2cc(C(=O)N(Cc3ccc(-c4ccc(N(C)C(C)C)nc4)cn3)N(C)c3ncccn3)ccc2nc1N` [Example 257, 2-amino-N-((6'-(isopropyl(methyl)amino) -[3,3'-bipyridin]-6-yl)methyl)-N',3-dimet hyl-N'-(pyrimidin-2-yl)quinoline-6-carbo hydrazide], for which the 50% inhibitory concentration (IC50) with HCT116-WT cells stood at 1020 nM; with HCT116 MTAP KO cells (Homo sapiens, HCT-116, 144 h) it was 76 nM. For the same compound, the “Selectivity HCT 116-WT/ HCT116 MTAP KO” value with HCT116 MTAP KO cells worked out at 13.42. For the compound `Cc1cc2nc(N)c3cnn(C)c3c2cc1C(=O)N1CCCN1c1ccc(C(F)(F)F)nc1` [Example 329, (4-amino-1,7-dimethyl-1H-pyrazolo[4,3-c]quinolin-8-yl)(2-(6-(trifluoromethyl)pyridin-3-yl)pyrazolidin-1-yl)methanone], the half-inhibitory concentration (IC50) was 831 nM in the experiment with HCT116 MTAP KO cells (Homo sapiens, HCT-116, 144 h) and 3.4 nM at PRMT5-MTA.

In the case of `Cn1ncc2c(N)nc3cc(Cl)c(C(=O)N4CC(C)(F)CN4c4cccc(F)n4)cc3c21` (centres unmarked) [Example 426, (4-amino-7-chloro-1-methyl-1H-pyrazolo [4,3-c]quinolin-8-yl)(4-fluoro-2-(6-fluoropyridin-2-yl)-4-methylpyrazolidin-1-yl)m ethanone], the IC50 with HCT116-WT cells worked out at 700 nM; in the experiment with HCT116 MTAP KO cells (Homo sapiens, HCT-116, 144 h), 49 nM. Further, the “Selectivity HCT 116-WT/ HCT116 MTAP KO” value in the experiment on HCT116 MTAP KO cells was found to be 14.29. In the case of `Cc1cc2nc(N)c3cnn(C)c3c2cc1C(=O)N1CCCN1c1ccccn1` [Example 349, (4-amino-1,7-dimethyl-1H-pyrazolo[4,3-c]quinolin-8-yl)(2-(pyridin-2-yl)pyrazolidin-1-yl)methanone], the 50% inhibitory concentration (IC50) was 458 nM in the experiment on HCT116 MTAP KO cells (Homo sapiens, HCT-116, 144 h) and 6.1 nM at PRMT5-MTA.

For the compound `Cc1cc2nc(N)c3cnn(C)c3c2cc1C(=O)N1CCCN1c1ccc(F)cn1` [Example 344, (4-amino-1,7-dimethyl-1H-pyrazolo[4,3-c]quinolin-8-yl)(2-(5-fluoropyridin-2-yl)pyrazolidin-1-yl)methanone], the half-maximal inhibitory concentration (IC50) was found to be 458 nM in the experiment on HCT116 MTAP KO cells (Homo sapiens, HCT-116, 144 h) and 4.7 nM on PRMT5-MTA. On the same counts, the results for `Nc1nc2ccc(C(=O)N3CCCN3c3ccc(C(F)(F)F)cn3)cc2c2c1COC2` [Example 341, (4-amino-1,3-dihydrofuro[3,4-c]quinolin-8-yl)(2-(5-(trifluoromethyl)pyridin-2-yl)pyrazolidin-1-yl)methanone] are above 10000 nM and 4.7 nM. Regarding `Cc1cc2nc(N)c3cnn(C)c3c2cc1C(=O)N1CCCN1c1ncccn1` [Example 332, (4-amino-1,7-dimethyl-1H-pyrazolo[4,3-c]quinolin-8-yl)(2-(pyrimidin-2-yl)pyrazolidin-1-yl)methanone], the IC50 with HCT116 MTAP KO cells (Homo sapiens, HCT-116, 144 h) was determined as 405 nM; on PRMT5-MTA, 6 nM. As for `Cc1cc2nc(N)c3cnn(C)c3c2cc1C(=O)N(Cc1ccc(C(F)(F)F)cn1)N(C)c1ncccn1` [Example 13, 4-amino-N',1,7-trimethyl-N'-(pyrimidin-2-yl)-N-((5-(trifluoromethyl)pyridin-2-yl)methyl)-1H-pyrazolo[4,3-c]quinoline-8-c arbohydrazide], on PRMT5-MTA, the IC50 came out at 4 nM. Take `Cc1ncsc1-c1ccc(CN(C(=O)c2cc3c(cc2F)nc(N)c2cnn(C)c23)N(c2ncccn2)C2CC2)nc1` [Example 253, 4-amino-N'-cyclopropyl-7-fluoro-1-methyl-N-((5-(4-methylthiazol-5-yl)pyridin-2-yl)methyl)-N'-(pyrimidin-2-yl)-1H-pyraz olo[4,3-c]quinoline-8-carbohydrazide]: the IC50 at PRMT5-MTA amounted to 6.1 nM. Still for that read-out and setting: in the case of `CN(C(=O)c1ccc2nc(N)c3c(c2c1)COC3)N(C)c1ccc(C(F)(F)F)cn1` [Example 55, 4-amino-N,N'-dimethyl-N'-(5-(trifluoromethyl)pyridin-2-yl)-1,3-dihydrofuro[3,4-c]quinoline-8-carbohydrazide] it was 4.6 nM.

`Cc1cc2nc(N)c3cnn(C)c3c2cc1C(=O)N(C)N1CCc2ncccc21` [Compound 114, 4-amino-N-(2,3-dihydro-1H-pyrrolo[3,2-b]pyridin-1-yl)-N,1,7-trimethyl-1H-pyraz olo[4,3-c]quinoline-8-carboxamide]: on PRMT5-MTA, the IC50 was found to be 4 nM. Regarding `Cc1cc2nc(N)c3cnn(C)c3c2cc1C(=O)N1C(C)CCN1c1ncccc1F` (centres unmarked) [Example 375, (4-amino-1,7-dimethyl-1H-pyrazolo[4,3-c]quinolin-8-yl)(2-(3-fluoropyridin-2-yl)-5-methylpyrazolidin-1-yl)methanone], the results for the IC50 in the experiment on HCT116 MTAP KO cells and on PRMT5-MTA were 280 nM and 2.5 nM, respectively. Regarding `Cc1cc2nc(N)c3cnn(C)c3c2cc1C(=O)N1CC(C)CN1c1ncccc1C(F)(F)F` (centres unmarked) [Example 399, (4-amino-1,7-dimethyl-1H-pyrazolo[4,3-c]quinolin-8-yl)(4-methyl-2-(3-(trifluoromethyl)pyridin-2-yl)pyrazolidin-1-yl)met hanone], the IC50 at PRMT5-MTA was determined as 6.2 nM. For `Cc1cc2nc(N)c3c(cnn3C)c2cc1C(=O)N1CCCN1c1ncccc1F` [Example 501, (4-amino-3,7-dimethyl-3H-pyrazolo[3,4-c]quinolin-8-yl)(2-(3-fluoropyridin-2-yl)pyrazolidin-1-yl)methanone], the IC50 on PRMT5-MTA stood at 4.4 nM. On to `Cc1cc2cc(C(=O)N(Cc3ccc(F)cn3)N(C)c3ncccn3)ccc2nc1N` [Example 71, 2-amino-N-((5-fluoropyridin-2-yl)methyl)-N',3-dimethyl-N'-(pyrimidin-2-yl)quin oline-6-carbohydrazide], for which the half-maximal inhibitory concentration (IC50) on PRMT5-MTA was 3.3 nM. On the same count and under the same terms, the same measure for `CCc1cccnc1N(C)N(Cc1ccc(C(F)(F)F)cn1)C(=O)c1ccc2nc(N)c(C)cc2c1` [Example 134, 2-amino-N'-(3-ethylpyridin-2-yl)-N',3-dimethyl-N-((5-(trifluoromethyl)pyridin-2-yl)methyl)quinoline-6-carbohydrazide]: 2.3 nM; for `Cc1cc2nc(N)c3cnn(C)c3c2cc1C(=O)N1CC(C)CN1c1ncccc1C` (centres unmarked) [Example 380, (4-amino-1,7-dimethyl-1H-pyrazolo[4,3-c]quinolin-8-yl)(4-methyl-2-(3-methylpyridin-2-yl)pyrazolidin-1-yl)methanone]: 3.4 nM; for `Cc1cc2nc(N)c3cnn(C)c3c2cc1C(=O)N(C)N1CCCc2cccnc21` [Example 268, 4-amino-N-(3,4-dihydro-1,8-naphthyridin-1(2H)-yl)-N,1,7-trimethyl-1H-pyrazolo[4,3-c]quinoline-8-carboxamide]: 3.5 nM. On to `Cc1cc2cc(C(=O)N(Cc3ccc(-c4scnc4C)cn3)N(c3nccc4nccnc34)C3CC3)ccc2nc1N` [Example 165, 2-amino-N'-cyclopropyl-3-methyl-N-((5-(4-methylthiazol-5-yl)pyridin-2-yl)methy 1)-N'-(pyrido[3,4-b]pyrazin-5-yl)quinoline-6-carbohydrazide], for which the IC50 at PRMT5-MTA is 3.3 nM. Still for that read-out and setting: in the case of `CCN(C(=O)c1ccc2nc(N)c3c(c2c1)COC3)N(C)c1ccc(C(F)(F)F)cc1` [Example 115, 4-amino-N-ethyl-N-methyl-N-(4-(trifluoromethyl)phenyl)-1,3-dihydrofuro[3,4-c]quinoline-8-carbohydrazide] it was 2 nM.

Regarding `Cc1cc2cc(C(=O)N(Cc3ccc(C(F)(F)F)cn3)N(C)c3c(F)cccc3C(F)(F)F)ccc2nc1N` [Example 44, 2-amino-N'-(2-fluoro-6-(trifluoromethyl)phenyl)-N',3-dimethyl-N-((5-(trifluoromethyl)pyridin-2-yl)methyl)quinoline-6-car bohydrazide], the IC50 on PRMT5-MTA is 1.9 nM. In the case of `Cc1cc2cc(C(=O)N(Cc3ccccn3)N(C)c3ncccn3)ccc2nc1N` [Example 9, 2-amino-N',3-dimethyl-N-(pyridin-2-ylmethyl)-N'-(pyrimidin-2-yl)quinoline-6-carbohydrazide], the IC50 on PRMT5-MTA was determined as 3.2 nM. On the same count and under the same terms, the same measure for `Cn1ncc2c(N)nc3cc(C4CC4)c(C(=O)N4CCCN4c4ccc(C(F)(F)F)cn4)cc3c21` [Example 497, (4-amino-7-cyclopropyl-1-methyl-1H-pyr azolo[4,3-c]quinolin-8-yl)(2-(5-(trifluoromethyl)pyridin-2-yl)pyrazolidin-1-yl)met hanone]: 5.1 nM; for `Cc1cc2nc(N)c3cnn(C)c3c2cc1C(=O)N1CCCN1c1ccncc1` [Example 336, (4-amino-1,7-dimethyl-1H-pyrazolo[4,3-c]quinolin-8-yl)(2-(pyridin-4-yl)pyrazolidin-1-yl)methanone]: 2.9 nM. With `CN(C(=O)c1cc2c(cc1F)nc(N)c1cnn(C)c12)N1CCc2cc(C(F)(F)F)cnc21` [Example 31, 4-amino-7-fluoro-N,1-dimethyl-N-(5-(trifluoromethyl)-2,3-dihydro-1H-pyrrolo[2,3-b]pyridin-1-yl)-1H-pyrazolo[4,3-c]quinoline-8-carboxamide], on PRMT5-MTA, the half-maximal inhibitory concentration (IC50) stood at 3.5 nM.
